Experiments:
[1] = tested on: NCI-H1648 (Lung Adenocarcinoma); assay: combination Emax (second highest fraction inhibited in the dose matrix, 72 h); higher = more inhibition; extreme values may be limits of the assay
Procedure, shortened: (§1)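 Bliss excess equals the observed combination effect minus the expected value EA + EB − EA·EB, where EA and EB are the effects of each agent alone. Combination Emax is the second-highest inhibition within the matrix. Inhibition was scaled from CellTiter-Glo 2.0 luminescence, with 0 set by vehicle wells and 1 by blank wells, after 72 hours of two-drug dosing of cells plated in 1536-well plates.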

[2] = tested on: TOV-21G (Ovarian Carcinoma); assay: as above
Procedure, shortened: as §1

[3] = tested on: NCI-H1048 (Small Cell Lung Carcinoma); assay: as above
Procedure, shortened: as §1

[4] = tested on: SCC90 (Head and Neck Carcinoma); assay: as above
Procedure, shortened: as §1

[5] = tested on: NCI-H2170 (Squamous Cell Lung Carcinoma); assay: as above
Procedure, shortened: as §1

[6] = tested on: NCI-H2023 (Non-Small Cell Lung Carcinoma); assay: as above
Procedure, shortened: as §1

[7] = tested on: HT-144 (Melanoma); assay: as above
Procedure, shortened: as §1

[8] = tested on: GCIY (Gastric Carcinoma); assay: as above
Procedure, shortened: as §1

[9] = tested on: L-363 (Plasma Cell Myeloma); assay: as above
Procedure, shortened: as §1

[10] = tested on: BT-474 (Breast Carcinoma); assay: as above
Procedure, shortened: as §1

[11] = tested on: SK-N-DZ (Neuroblastoma); assay: as above
Procedure, shortened: as §1

[12] = tested on: MDA-MB-175-VII (Breast Carcinoma); assay: as above
Procedure, shortened: as §1

[13] = tested on: NCI-H1048 (Small Cell Lung Carcinoma); assay: Bliss excess, mean over the matrix (fraction); higher = more synergy
Procedure, shortened: as §1

[14] = tested on: SCC90 (Head and Neck Carcinoma); assay: as above
Procedure, shortened: as §1

[15] = tested on: JJN-3 (Plasma Cell Myeloma); assay: as above
Procedure, shortened: as §1

[16] = tested on: A375 (Melanoma); assay: as above
Procedure, shortened: as §1

[17] = tested on: SK-N-DZ (Neuroblastoma); assay: as above
Procedure, shortened: as §1

[18] = tested on: GRANTA-519 (B-Cell Non-Hodgkin's Lymphoma); assay: as above
Procedure, shortened: as §1

[19] = tested on: Daudi (Burkitt's Lymphoma); assay: as above
Procedure, shortened: as §1

[20] = tested on: RPMI-8402 (T-Lymphoblastic Leukemia); assay: as above
Procedure, shortened: as §1

SMILES | combination Emax [1] | combination Emax [2] | combination Emax [3] | combination Emax [4] | combination Emax [5] | combination Emax [6] | combination Emax [7] | combination Emax [8] | combination Emax [9] | combination Emax [10] | combination Emax [11] | combination Emax [12] | Bliss excess [13] | Bliss excess [14] | Bliss excess [15] | Bliss excess [16] | Bliss excess [17] | Bliss excess [18] | Bliss excess [19] | Bliss excess [20]
CC1(C)CCC(CN2CCN(c3ccc(C(=O)NS(=O)(=O)c4ccc(NCC5CCOCC5)c([N+](=O)[O-])c4)c(Oc4cnc5[nH]ccc5c4)c3)CC2)=C(c2ccc(Cl)cc2)C1 [Venetoclax] + C1CN(CCC1(C(=O)N[C@@H](CCO)C2=CC=C(C=C2)Cl)N)C3=NC=NC4=C3C=CN4 [Capivasertib] (first compound max 1 µM, 7x7, partner max 3 µM) | 0.45 | 0.646 | 0.679 | 0.813 | 0.375 | 0.424 | 0.383 | 0.442 | 0.867 | 0.383 | 0.307 | 0.393 | 0.0124 | 0.0282 | -0.0035 | -0.0463 | -0.0211 | 0.0036 | -0.0103 | -0.0544
NC1(C(=O)N[C@@H](CCO)c2ccc(Cl)cc2)CCN(c2ncnc3[nH]ccc23)CC1 [Capivasertib] + C[C@@H]1COCCN1C2=NC(=NC(=C2)C3(CC3)[S@](=N)(=O)C)C4=C5C=CNC5=NC=C4 [AZD6738] (first compound max 10 µM, 7x7, partner max 10 µM) | 0.746 | 0.851 | 0.667 | 0.804 | 0.809 | 0.655 | 0.88 | 0.751 | 0.824 | 0.406 | 0.983 | 0.683 | -0.0204 | -0.0541 | -0.0181 | -0.0239 | 0.0045 | -0.0136 | 0.0167 | -0.0768
CC1(C)CCC(CN2CCN(c3ccc(C(=O)NS(=O)(=O)c4ccc(NCC5CCOCC5)c([N+](=O)[O-])c4)c(Oc4cnc5[nH]ccc5c4)c3)CC2)=C(c2ccc(Cl)cc2)C1 [Venetoclax] + C[C@@H](Nc1cc(F)cc(F)c1)c1cc(C(=O)N(C)C)cc2c(=O)cc(N3CCOCC3)oc12 [AZD8186] (first compound max 1 µM, 7x7, partner max 3 µM) | 0.454 | 0.149 | 0.504 | 0.29 | 0.166 | 0.416 | 0.159 | 0.641 | 0.805 | 0.163 | 0.256 | 0.315 | 0.018 | 0.048 | -0.0092 | -0.0326 | 0.0144 | 0.0281 | -0.0238 | 0.0028
CC(=O)Nc1cccc(-n2c(=O)n(C3CC3)c(=O)c3c(Nc4ccc(I)cc4F)n(C)c(=O)c(C)c32)c1 [Trametinib] + Cc1nc(-c2cn3c(n2)-c2ccc(-c4cnn(C(C)(C)C(N)=O)c4)cc2OCC3)n(C(C)C)n1 [Taselisib] (first compound max 1 µM, 7x7, partner max 10 µM) | 1 | 0.817 | 1 | 0.997 | 0.919 | 0.769 | 1 | 0.99 | 0.635 | 0.841 | 0.521 | 1 | 0.245 | 0.0348 | 0.204 | 0.0783 | 0.0954 | -0.0007 | 0.0217 | 0.0185
